Target: IKZF2 (Homo sapiens (Human), UniProt Q96SW2+Q9UKS7)
Test: IKZF2 HiBiT Assay (Jurkat-IKZF2-HiBiT cell line)
Type: cell-based
Conditions: Jurkat-IKZF2-HiBiT cells, 24 hours; for DC50: read-out: HiBit assay degradation analysis DC50; for Dmax: read-out: HiBit assay degradation analysis Dmax
Outline: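 Jurkat cells carrying HiBiT-tagged IKZF2 were exposed to serially diluted compound for 24 h at 37 °C. Remaining IKZF2 was measured by Nano-Glo HiBiT lytic luminescence after 10-20 min at room temperature. Signal was normalized to DMSO, and IC50 came from a four-parameter variable-slope fit.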

Sequence of IKZF2 (Q9UKS7 whole entry): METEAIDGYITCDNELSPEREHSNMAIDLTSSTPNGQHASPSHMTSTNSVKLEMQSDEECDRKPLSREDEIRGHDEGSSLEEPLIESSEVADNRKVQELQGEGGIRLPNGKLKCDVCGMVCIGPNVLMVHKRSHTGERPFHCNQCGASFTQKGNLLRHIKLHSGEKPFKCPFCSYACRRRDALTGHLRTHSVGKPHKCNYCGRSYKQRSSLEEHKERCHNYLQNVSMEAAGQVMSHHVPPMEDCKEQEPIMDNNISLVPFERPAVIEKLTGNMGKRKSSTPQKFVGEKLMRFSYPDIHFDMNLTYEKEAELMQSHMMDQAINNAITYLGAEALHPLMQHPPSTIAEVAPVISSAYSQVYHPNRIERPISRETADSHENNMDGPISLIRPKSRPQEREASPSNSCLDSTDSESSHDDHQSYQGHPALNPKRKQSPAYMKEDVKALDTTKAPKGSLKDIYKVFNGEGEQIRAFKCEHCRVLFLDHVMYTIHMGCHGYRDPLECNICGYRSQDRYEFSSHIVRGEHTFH
Sequence of IKZF2 (Q96SW2 whole entry): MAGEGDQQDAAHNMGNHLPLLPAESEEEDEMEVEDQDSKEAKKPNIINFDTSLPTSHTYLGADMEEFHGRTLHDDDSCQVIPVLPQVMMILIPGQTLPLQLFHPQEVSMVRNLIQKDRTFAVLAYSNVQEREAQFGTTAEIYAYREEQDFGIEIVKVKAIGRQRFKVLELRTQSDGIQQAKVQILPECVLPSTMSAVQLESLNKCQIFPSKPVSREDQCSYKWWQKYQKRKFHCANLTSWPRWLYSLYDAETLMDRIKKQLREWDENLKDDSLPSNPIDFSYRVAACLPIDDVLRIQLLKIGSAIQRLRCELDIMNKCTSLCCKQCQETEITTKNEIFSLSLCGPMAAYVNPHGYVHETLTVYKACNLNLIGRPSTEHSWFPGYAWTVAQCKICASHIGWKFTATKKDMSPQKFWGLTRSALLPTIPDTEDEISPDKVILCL
Sequence of IKZF2 (Q16531 whole entry partner): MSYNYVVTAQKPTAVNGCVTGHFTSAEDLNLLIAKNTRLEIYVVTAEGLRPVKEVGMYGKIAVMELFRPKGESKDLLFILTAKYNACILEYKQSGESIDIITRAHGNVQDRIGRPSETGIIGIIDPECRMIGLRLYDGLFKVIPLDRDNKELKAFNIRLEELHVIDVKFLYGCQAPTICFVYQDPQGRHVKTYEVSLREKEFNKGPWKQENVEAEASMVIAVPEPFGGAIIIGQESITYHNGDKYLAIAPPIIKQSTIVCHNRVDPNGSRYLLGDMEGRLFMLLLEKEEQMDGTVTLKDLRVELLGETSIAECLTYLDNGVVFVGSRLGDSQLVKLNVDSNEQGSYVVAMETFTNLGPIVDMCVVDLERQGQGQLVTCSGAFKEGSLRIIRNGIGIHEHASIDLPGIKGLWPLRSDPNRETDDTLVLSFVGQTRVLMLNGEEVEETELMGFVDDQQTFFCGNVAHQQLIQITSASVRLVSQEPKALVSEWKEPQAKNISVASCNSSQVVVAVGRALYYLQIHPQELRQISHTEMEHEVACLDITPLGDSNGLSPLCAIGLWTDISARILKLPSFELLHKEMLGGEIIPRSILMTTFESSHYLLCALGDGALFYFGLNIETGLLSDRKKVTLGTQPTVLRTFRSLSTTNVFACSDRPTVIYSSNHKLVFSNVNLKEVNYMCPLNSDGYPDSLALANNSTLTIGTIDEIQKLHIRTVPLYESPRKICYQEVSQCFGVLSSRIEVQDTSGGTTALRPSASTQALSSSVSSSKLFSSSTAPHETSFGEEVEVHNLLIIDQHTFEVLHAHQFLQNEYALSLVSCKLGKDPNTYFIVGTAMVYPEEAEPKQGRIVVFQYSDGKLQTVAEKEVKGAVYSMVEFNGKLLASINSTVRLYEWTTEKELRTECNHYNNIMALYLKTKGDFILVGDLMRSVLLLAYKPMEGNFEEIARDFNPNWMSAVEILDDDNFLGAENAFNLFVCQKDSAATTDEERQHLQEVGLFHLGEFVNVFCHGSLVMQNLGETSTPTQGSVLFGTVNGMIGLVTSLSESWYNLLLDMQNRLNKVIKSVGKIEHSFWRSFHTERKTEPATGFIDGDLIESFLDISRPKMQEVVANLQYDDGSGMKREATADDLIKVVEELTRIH

Compound	DC50 [nM]	Dmax [%]
COCn1cc(-c2cccc(CN3CCC4(CC3)COc3c4ccc4c3CN([C@H]3CCC(=O)NC3=O)C4=O)c2)cn1 [Compound A294, (S)-3-(1′-(3-(1-(methoxymethyl)-1H-pyrazol-4-yl)benzyl)-6-oxo-6,8-dihydro-2H,7H-spiro[furo[2,3-e]isoindole-3,4′-piperidin]-7-yl)piperidine-2,6-dione]	< 50	60 to 80
O=C1CCC(N2Cc3c(ccc4c3OCC43CCN(Cc4cnn(-c5ccccc5Cl)c4)CC3)C2=O)C(=O)N1 (stereo not drawn) [Compound A331, 3-(1′-((1-(2-chlorophenyl)-1H-pyrazol-4-yl)methyl)-6-oxo-6,8-dihydro-2H,7H-spiro[furo[2,3-e]isoindole-3,4′-piperidin]-7-yl) piperidine-2,6-dione]	> 500	< 40
O=C1CC[C@H](N2Cc3c(ccc4c3OCC43CCN(Cc4cnn(CC5C[C@@H]5c5ccccc5)c4)CC3)C2=O)C(=O)N1 (stereo partly drawn) [Compound A347, (S)-3-(6-oxo-1′-((1-(((1S,2S)-2-phenylcyclopropyl)methyl)-1H-pyrazol-4-yl)methyl)-6,8-dihydro-2H,7H-spiro[furo[2,3-e]isoindole-3,4′-piperidin]-7-yl)piperidine-2,6-dione]	< 50	
O=C1CCC(N2Cc3c(ccc4c3OCC43CCN(Cc4cccc5c4CCCC5)CC3)C2=O)C(=O)N1 (stereo not drawn) [Compound A208, 3-(6-oxo-1′-((5,6,7,8-tetrahydronaphthalen-1-yl)methyl)-6,8-dihydro-2H,7H-spiro[furo[2,3-e]isoindole-3,4′-piperidin]-7-yl)piperidine-2,6-dione]	< 50	60 to 80
CO[C@H]1C[C@H](n2cc(-c3cccc(CN4CCC5(CC4)COc4c5ccc5c4CN([C@H]4CCC(=O)NC4=O)C5=O)c3)cn2)C1 [Compound A297, (S)-3-(1′-(3-(1-((1r,3r)-3-methoxycyclobutyl)-1H-pyrazol-4-yl)benzyl)-6-oxo-6,8-dihydro-2H,7H-spiro[furo[2,3-e]isoindole-3,4′-piperidin]-7-yl)piperidine-2,6-dione]	< 50	60 to 80
O=C1CCC(N2Cc3c(ccc4c3OCC43CCN(Cc4cnc(-c5ccccc5)s4)CC3)C2=O)C(=O)N1 (stereo not drawn) [Compound A81, 3-(6-oxo-1′-((2-phenylthiazol-5-yl)methyl)-6,8-dihydro-2H,7H-spiro[furo[2,3-e]isoindole-3,4′-piperidin]-7-yl)piperidine-2,6-dione]	> 500	< 40
Cc1cccc(CN2CCC3(CC2)COc2c3ccc3c2CN(C2CCC(=O)NC2=O)C3=O)c1 (stereo not drawn) [Compound A213, 3-(1′-(3-methylbenzyl)-6-oxo-6,8-dihydro-2H,7H-spiro[furo[2,3-e]isoindole-3,4′-piperidin]-7-yl)piperidine-2,6-dione]	< 50	60 to 80
O=C1CCC(N2Cc3c(ccc4c3OCC43CCN(Cc4cccc5c4CCCO5)CC3)C2=O)C(=O)N1 (stereo not drawn) [Compound A218, 3-(1′-(chroman-5-ylmethyl)-6-oxo-6,8-dihydro-2H,7H-spiro[furo[2,3-e]isoindole-3,4′-piperidin]-7-yl)piperidine-2,6-dione]	< 50	60 to 80
O=C1CC[C@H](N2Cc3c(ccc4c3OCC43CCN(Cc4cccc(-c5cnn([C@@H]6CCOC6)c5)c4)CC3)C2=O)C(=O)N1 [Compound A270, (S)-3-(6-oxo-1′-(3-(1-((R)-tetrahydrofuran-3-yl)-1H-pyrazol-4-yl)benzyl)-6,8-dihydro-2H,7H-spiro[furo[2,3-e]isoindole-3,4′-piperidin]-7-yl)piperidine-2,6-dione]	< 50	60 to 80
O=C1CCC(N2Cc3c(ccc4c3OCC43CCN(Cc4cc5ccccc5s4)CC3)C2=O)C(=O)N1 (stereo not drawn) [Compound A184, 3-(1′-(benzo[b]thiophen-2-ylmethyl)-6-oxo-6,8-dihydro-2H,7H-spiro[furo[2,3-e]isoindole-3,4′-piperidin]-7-yl)piperidine-2,6-dione]	> 500	< 40
O=C1CCC(N2Cc3c(ccc4c3OCC43CCN(Cc4cc(F)cc5ccoc45)CC3)C2=O)C(=O)N1 (stereo not drawn) [Compound A117, 3-(1′-((5-fluorobenzofuran-7-yl)methyl)-6-oxo-6,8-dihydro-2H,7H-spiro[furo[2,3-e]isoindole-3,4′-piperidin]-7-yl)piperidine-2,6-dione]	200 to 500	40 to 60
O=C1CCC(N2Cc3c(ccc4c3OCC43CCN(Cc4cncc5ccccc45)CC3)C2=O)C(=O)N1 (stereo not drawn) [Compound A43, 3-(1′-(isoquinolin-4-ylmethyl)-6-oxo-6,8-dihydro-2H,7H-spiro[furo[2,3-e]isoindole-3,4′-piperidin]-7-yl)piperidine-2,6-dione]	> 500	40 to 60
Cn1cc(CN2CCC3(CC2)COc2c3ccc3c2CN(C2CCC(=O)NC2=O)C3=O)cn1 (stereo not drawn) [Compound A228, 3-(1′-((1-methyl-1H-pyrazol-4-yl)methyl)-6-oxo-6,8-dihydro-2H,7H-spiro[furo[2,3-e]isoindole-3,4′-piperidin]-7-yl)piperidine-2,6-dione]	> 500	< 40
O=C1CCC(N2Cc3c(ccc4c3OCC43CCN(CC4CC5CCC4C5)CC3)C2=O)C(=O)N1 (stereo not drawn) [Compound A24, 3-(1′-(bicyclo[2.2.1]heptan-2-ylmethyl)-6-oxo-6,8-dihydro-2H,7H-spiro[furo[2,3-e]isoindole-3,4′-piperidin]-7-yl)piperidine-2,6-dione]	> 500	40 to 60
Cn1ncc2ccc(CN3CCC4(CC3)COc3c4ccc4c3CN(C3CCC(=O)NC3=O)C4=O)cc21 (stereo not drawn) [Compound A57, 3-(1′-((1-methyl-1H-indazol-6-yl)methyl)-6-oxo-6,8-dihydro-2H,7H-spiro[furo[2,3-e]isoindole-3,4′-piperidin]-7-yl)piperidine-2,6-dione]	50 to 200	60 to 80
O=C1CCC(N2Cc3c(ccc4c3OCC43CCN(Cc4cnn(C5CCCCC5)c4)CC3)C2=O)C(=O)N1 (stereo not drawn) [Compound A220, 3-(1′-((1-cyclohexyl-1H-pyrazol-4-yl)methyl)-6-oxo-6,8-dihydro-2H,7H-spiro[furo[2,3-e]isoindole-3,4′-piperidin]-7-yl)piperidine-2,6-dione]	> 500	< 40
O=C1CC[C@H](N2Cc3c(ccc4c3OCC43CCN(Cc4cccc(-c5cnn(C(F)F)c5)c4)CC3)C2=O)C(=O)N1 [Compound A281, (S)-3-(1′-(3-(1-(difluoromethyl)-1H-pyrazol-4-yl)benzyl)-6-oxo-6,8-dihydro-2H,7H-spiro[furo[2,3-e]isoindole-3,4′-piperidin]-7-yl)piperidine-2,6-dione]	< 50	> 80

Reference: US20250215012A1, “IKZF2 DEGRADERS AND USES THEREOF” (REGENTS OF THE UNIVERSITY OF MICHIGAN, priority 2022, published 2025)
